# Literature values, collected in US20160199396A1 (TEVA Pharmaceutical Industries Ltd., priority 2013, published 2016).
# Details: background statement
compound,measurement,value
"CC(C)c1nc(CN(C)C(=O)N[C@H](C(=O)N[C@@H](Cc2ccccc2)C[C@H](O)[C@H](Cc2ccccc2)NC(=O)OCc2cncs2)C(C)C)cs1 [Ritonavir, 1,3-thiazol-5-ylmethyl N-[(2S,3S,5S)-3-hydroxy-5-[(2S)-3-methyl-2-{[methyl({[2-(propan-2-yl)-1,3-thiazol-4-yl]methyl})carbamoyl]amino}butanamido]-1,6-diphenylhexan-2-yl]carbamate]",BCS (biopharmaceutical classification system) class,class IV
